Reference: patent US20250263396A1, “CRYSTALLINE FORMS OF 3-(5-(2-HYDROXY-2- METHYLPROPOXY)-6-METHYPYRAZIN-2-YL)-1H-INDOLE-7-CARBONITRILE” (NIDO BIOSCIENCES, INC., priority 2024, published 2025)
Like-named read-outs stand apart in the source and are kept apart here.

Tests used:
[1] = Hygroscopicity by dynamic vapor sorption (DVS); assay type: physicochemical
Description: Dynamic vapor sorption (DVS) was performed on an Intrinsic, Advantage or Adventure with an oven temperature of 25° C. using water as a solvent. The sample mass was about 5-10 mg using the following method: • Cycle: 40-0-95-0-40% RH • Stage Step: 10% • Equilibrium: 0.002 dm/dt (%/min) • Minimum dm/dt stability duration: 60 min • Maximum dm/dt stage time: 360 min.
Hygroscopicity of Form P was evaluated by dynamic vapor sorption (DVS) test at 25° C. Form P is non-hygroscopic at 80% RH; about 0.1% water uptake at 80% RH. Form P is slightly hygroscopic from 80% RH-95% RH: About 1.6% water uptake from 80% RH to 95% RH.

[2] = Dry grinding simulation experiments; assay type: physicochemical; details: ground manually with mortar and pestle
Description: About 10 mg of Form P was ground manually with a mortar and a pestle for 1, 3 and 5 minutes.
About 10 mg of Form C was ground manually with a mortar and a pestle for 5 minutes.

[3] = Wet granulation simulation experiments; assay type: physicochemical
Description: Water or ethanol was added drop wise to about 10 mg of Form P until the sample is wetted sufficiently. Wet sample was ground gently with in a mortar and a pestle. Post granulation sample was dried under ambient condition for 10 min.
Water or ethanol was added drop wise to about 10 mg of Form C until the sample is wetted sufficiently. Wet sample was ground gently with in a mortar and a pestle. Post granulation sample was dried under ambient condition for 5 min.

[4] = Equilibration with solvents; assay type: physicochemical
Description: Obtained suspensions were filtered through a 0.45 μm nylon membrane filter by centrifugation at 14,000 rpm. Solid parts (wet cakes) were investigated by XRPD. For samples with different XRPD patterns, additional analysis including DSC, TGA, ^1H-NMR were performed.
(§1) Obtained suspensions were filtered through a 0.45 μm nylon membrane filter by centrifugation at 14,000 rpm.
as §1

[5] = 24 hours; for XRPD: residual solids; for pH: supernatant
Description: Non-milled Form P (10 mg, purity 100%) was weighed into a 20 mL glass vial. 5 mL of solubility medium was added. Obtained suspensions were stirred at 37° C. at 400 rpm and sampled at 24 hours. The samples were centrifuged at 37 C at 14,000 rpm for 5 min. Supernatants were analyzed by HPLC and pH meter for solubility and pH value, respectively. Residual solids (wet cakes) from the 24 hours samples were also characterized by XRPD to determine physical form.

[6] = wet cake in sealed bottle
Description: Wet cake chemical stability of Form P at 40° C., 50° C., 60° C. was evaluated.

[7] = cake dried under vacuum
Description: The cake of Form P was dried under vacuum at different temperatures to evaluate the chemical stability of dry cake.

[8] = physchem; details: water, thermodynamic from solid, Approximate solubility
Description: Form P (5 mg, purity 100%) was weighed to a 2 mL glass vial. 20 μL aliquots of each solvent were added to dissolve the drug substance at 25 C. […] Vortex and sonication were applied to assist dissolution. Max. volume of each solvent added is 1 mL. For obtained suspensions (Exp. ID 1, 10 and 11) after addition of 1 mL solvent at 25° C., they were placed at 50° C. Approximate solubility was determined by visual observation.

[9] = 10% relative humidity at 25° C.
[10] = 20% relative humidity at 25° C.
[11] = 30% relative humidity at 25° C.
[12] = 40% relative humidity at 25° C.
[13] = 50% relative humidity at 25° C.
[14] = 60% relative humidity at 25° C.
[15] = 70% relative humidity at 25° C.
[16] = 80% relative humidity at 25° C.
[17] = 90% relative humidity at 25° C.
[18] = 95% relative humidity at 25° C.
[19] = pH 1.2 HCl buffer (0.1N), 37° C.
[20] = pH 3 citrate buffer (50 mM), 37° C.
[21] = pH 5 acetate buffer (50 mM), 37° C.
[22] = pH 7 phosphate buffer (50 mM), 37° C.

Cc1nc(-c2c[nH]c3c(C#N)cccc23)cnc1OCC(C)(C)O [Form P, 3-(5-(2-hydroxy-2-methylpropoxy)-6-methylpyrazin-2-yl)-1H-indole-7-carbonitrile]
1st desorp. Weight % change ([1]; 0% relative humidity at 25° C.): 0.1%
1st sorp. Weight % change ([1]; 0% relative humidity at 25° C.): 0.1%
2nd desorp. Weight % change ([1]; 0% relative humidity at 25° C.): 0.0%
2nd sorp. Weight % change ([1]; 0% relative humidity at 25° C.): 0.0%
1st desorp. Weight % change [1, 9]: 0.1%
1st sorp. Weight % change [1, 9]: 0.1%
2nd desorp. Weight % change [1, 9]: 0.0%
2nd sorp. Weight % change [1, 9]: 0.0%
1st desorp. Weight % change [1, 10]: 0.1%
1st sorp. Weight % change [1, 10]: 0.1%
2nd desorp. Weight % change [1, 10]: 0.0%
2nd sorp. Weight % change [1, 10]: 0.0%
Form after the DVS test ([1]; 25° C.): still in Form P
1st desorp. Weight % change [1, 11]: 0.2%
1st sorp. Weight % change [1, 11]: 0.1%
2nd desorp. Weight % change [1, 11]: 0.1%
2nd sorp. Weight % change [1, 11]: 0.0%
1st desorp. Weight % change [1, 12]: 0.2%
1st sorp. Weight % change [1, 12]: 0.1%
2nd desorp. Weight % change [1, 12]: 0.1%
2nd sorp. Weight % change [1, 12]: 0.0%
1st sorp. Weight % change [1, 13]: 0.1%
2nd desorp. Weight % change [1, 13]: 0.1%
1st sorp. Weight % change [1, 14]: 0.1%
2nd desorp. Weight % change [1, 14]: 0.2%
1st sorp. Weight % change [1, 15]: 0.1%
2nd desorp. Weight % change [1, 15]: 0.3%
1st sorp. Weight % change [1, 16]: 0.2%
2nd desorp. Weight % change [1, 16]: 0.4%
1st sorp. Weight % change [1, 17]: 0.8%
2nd desorp. Weight % change [1, 17]: 0.9%
1st sorp. Weight % change [1, 18]: 1.8%
2nd desorp. Weight % change [1, 18]: 1.8%
Hygroscopicity ([1]; at 80% RH, 25° C.): non-hygroscopic (water uptake <0.2% = non-hygroscopic)
water uptake ([1]; at 80% RH, 25° C.): about 0.1%
water uptake ([1]; from 80% RH to 95% RH, 25° C.): About 1.6%
Hygroscopicity ([1]; from 80% RH-95% RH, 25° C.): slightly hygroscopic (water uptake ≥0.2% but <2% = slightly hygroscopic)
Comments (crystallinity) ([2]; 1 min): No obvious change in crystallinity
XRPD ([2]; 1 min): Form P
Comments (crystallinity) ([2]; 3 min): No obvious change in crystallinity
XRPD ([2]; 3 min): Form P
Comments (crystallinity) ([2]; 5 min): No obvious change in crystallinity
XRPD ([2]; 5 min): Form P
Comments (crystallinity) ([3]; granulation solvent Ethanol): No obvious change in crystallinity
XRPD ([3]; granulation solvent Ethanol): Form P
Comments (crystallinity) ([3]; granulation solvent Water): No obvious change in crystallinity
XRPD ([3]; granulation solvent Water): Form P
XRPD after equilibration ([4]; 2-MeTHF, 25° C., 2 weeks): Form P
XRPD after equilibration ([4]; 2-MeTHF, 50° C., 1 week): Form P
XRPD after equilibration ([4]; 2-MeTHF/heptane (v:v = 1:1), 25° C., 2 weeks): Form P
XRPD after equilibration ([4]; 2-MeTHF/heptane (v:v = 1:1), 50° C., 1 week): Form P
XRPD after equilibration ([4]; 2-MeTHF/heptane (v:v = 3:1), 25° C., 2 weeks): Form P
XRPD after equilibration ([4]; 2-MeTHF/heptane (v:v = 3:1), 50° C., 1 week): Form P
XRPD after equilibration ([4]; 2-Propanol, 25° C., 2 weeks): Form P
XRPD after equilibration ([4]; 2-Propanol, 50° C., 1 week): Form P
XRPD after equilibration ([4]; Acetone, 25° C., 2 weeks): Form P
XRPD after equilibration ([4]; Acetone, 50° C., 1 week): Form P
XRPD after equilibration ([4]; Acetone/water (v:v = 30:70) a.w. = 0.92, 50° C., 1 week): Form P
XRPD after equilibration ([4]; Acetonitrile, 25° C., 2 weeks): Form P
XRPD after equilibration ([4]; Acetonitrile, 50° C., 1 week): Form P
XRPD after equilibration ([4]; DMSO, 25° C., 2 weeks): Form U
Comments (appearance) ([4]; DMSO, 50° C., 1 week, (500 mg/mL)): Clear solution
XRPD after equilibration ([4]; DMSO/water (v:v = 40:60) a.w. = 0.77, 50° C., 1 week): Form P
XRPD after equilibration ([4]; Ethanol, 25° C., 2 weeks): Form P
XRPD after equilibration ([4]; Ethanol, 50° C., 1 week): Form P
XRPD after equilibration ([4]; Ethanol/water (v:v = 40:60) a.w. = 0.91, 25° C., 2 weeks): Form P
XRPD after equilibration ([4]; Ethanol/water (v:v = 40:60) a.w. = 0.91, 50° C., 1 week): Form P
XRPD after equilibration ([4]; Ethyl acetate, 25° C., 2 weeks): Form P
XRPD after equilibration ([4]; Ethyl acetate, 50° C., 1 week): Form P
XRPD after equilibration ([4]; Heptane, 25° C., 2 weeks): Form P
XRPD after equilibration ([4]; Heptane, 50° C., 1 week): Form P
XRPD after equilibration ([4]; Isopropyl acetate, 25° C., 2 weeks): Form P
XRPD after equilibration ([4]; Isopropyl acetate, 50° C., 1 week): Form P
XRPD after equilibration ([4]; MEK, 25° C., 2 weeks): Form P
XRPD after equilibration ([4]; MEK, 50° C., 1 week): Form P
XRPD after equilibration ([4]; MTBE, 25° C., 2 weeks): Form P
XRPD after equilibration ([4]; MTBE, 50° C., 1 week): Form P
XRPD after equilibration ([4]; Methanol, 25° C., 2 weeks): Form B + Form W
XRPD after equilibration ([4]; Methanol, 50° C., 1 week): Form P
XRPD after equilibration ([4]; NMP, 25° C., 2 weeks): Form Q
Comments (appearance) ([4]; NMP, 50° C., 1 week, (500 mg/mL)): Clear solution
XRPD after equilibration ([4]; THF, 25° C., 2 weeks): Form P
Comments (appearance) ([4]; THF, 50° C., 1 week, (250 mg/mL)): Clear solution
Comments (appearance) ([4]; THF/water (v:v = 80:20) a.w. = 0.91, 50° C., 1 week, (500 mg/mL)): Clear solution
XRPD after equilibration ([4]; Toluene, 25° C., 2 weeks): Form P
XRPD after equilibration ([4]; Toluene, 50° C., 1 week): Form P
XRPD after equilibration ([4]; Water, 25° C., 2 weeks): Form P
XRPD after equilibration ([4]; Water, 50° C., 1 week): Form P
XRPD ([5]; FaSSGF, pH 1.6, 37° C.): Form P
XRPD ([5]; FaSSIF-v1, pH 6.5, 37° C.): Form P
XRPD ([5]; FeSSIF-v1, pH 5.0, 37° C.): Form P
XRPD ([5]; Water, 37° C.): Form P
XRPD [5, 19]: Form P
XRPD [5, 20]: Form P
XRPD [5, 21]: Form P + one additional peak (It
XRPD [5, 22]: Form P
pH ([5]; FaSSGF, pH 1.6, 37° C.): 1.5
pH ([5]; FaSSIF-v1, pH 6.5, 37° C.): 6.4
pH ([5]; FeSSIF-v1, pH 5.0, 37° C.): 4.9
pH ([5]; Water, 37° C.): 7.7
pH [5, 19]: 1.1
pH [5, 20]: 3.0
pH [5, 21]: 4.9
pH [5, 22]: 6.9
Purity after holding ([6]; 0 h): Purity: 100%
Purity after holding ([6]; 40° C., 22 h): 100%
Purity after holding ([6]; 40° C., 4 d): 100%
Purity after holding ([6]; 50° C., 22 h): 100%
Purity after holding ([6]; 50° C., 4 d): 100%
Purity after holding ([6]; 60° C., 22 h): 100%
Purity after holding ([6]; 60° C., 4 d): 100%
Purity after holding ([7]; 0 h): Purity: 100%
Purity after holding ([7]; 40° C., 22 h): 100%
Purity after holding ([7]; 40° C., 4 d): 100%
Purity after holding ([7]; 50° C., 22 h): 100%
Purity after holding ([7]; 50° C., 4 d): 100%
Purity after holding ([7]; 60° C., 22 h): 100%
Purity after holding ([7]; 60° C., 4 d): 100%
solubility ([8]; 25 °C): < 5000 µg/mL
solubility ([8]; 50 °C): < 5000 µg/mL
